Patent publication US10835719B2, “Drug releasing coatings for medical devices” (Lutonix, Inc., priority 2006, dated 2020)

Key:
[1] = cited from earlier work
[2] = Stability of additive with paclitaxel under ethylene oxide sterilization, heating and aging; format: physicochemical; settings: additive formulated with paclitaxel; reacted with paclitaxel
albumin = albumin (Homo sapiens, UniProt P02768); settings: cited from earlier work
Sequence of albumin (P02768 25-609): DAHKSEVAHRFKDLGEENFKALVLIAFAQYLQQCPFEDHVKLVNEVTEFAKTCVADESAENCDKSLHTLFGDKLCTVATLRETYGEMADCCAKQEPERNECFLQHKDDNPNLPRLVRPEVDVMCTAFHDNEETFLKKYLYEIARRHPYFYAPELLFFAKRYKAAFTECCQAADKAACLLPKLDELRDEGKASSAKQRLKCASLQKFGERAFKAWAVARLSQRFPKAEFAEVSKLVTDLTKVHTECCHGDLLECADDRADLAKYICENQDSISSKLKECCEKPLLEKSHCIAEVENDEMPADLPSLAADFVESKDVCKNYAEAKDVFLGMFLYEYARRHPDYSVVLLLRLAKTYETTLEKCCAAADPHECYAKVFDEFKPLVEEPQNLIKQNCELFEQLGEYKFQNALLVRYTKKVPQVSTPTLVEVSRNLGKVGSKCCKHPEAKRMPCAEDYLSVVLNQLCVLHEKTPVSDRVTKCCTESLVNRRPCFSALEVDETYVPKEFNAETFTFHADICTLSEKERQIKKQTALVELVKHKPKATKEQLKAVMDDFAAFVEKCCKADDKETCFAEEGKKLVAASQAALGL

stability under ethylene oxide sterilization, heating, and aging process [2]	Compound	further results
	COc1ccc(O)c(C(C)(C)C)c1 [Butylated hydroxyanisole (BHA), Butylated hydroxyanisole]	log P [1]: 1.31
not stable	O=C1O[C@H]([C@@H](O)CO)C(O)=C1O [ascorbic acid]	
not stable	OCCNCCO [diethanolamine]	
not stable	O=C(O)c1cc(O)ccc1O [gentisic acid]	
	CO[C@H]1C[C@@H]2CC[C@@H](C)[C@@](O)(O2)C(=O)C(=O)N2CCCC[C@H]2C(=O)O[C@H]([C@H](C)C[C@@H]2CC[C@@H](O)[C@H](OC)C2)CC(=O)[C@H](C)/C=C(\C)[C@@H](O)[C@@H](OC)C(=O)[C@H](C)C[C@H](C)/C=C/C=C/C=C/1C [rapamycin]	protein bound (albumin): 92%
	PEG-20 sorbitan monolaurate [Tween 20]	log P [1]: about 3.0

Compound	stability under ethylene oxide sterilization, heating, and aging process [2]	further results
O=C(O)c1ccccc1 [benzoic acid]	not stable	
